Measurements from patent US20230250095A1, “BENZIMIDAZOLE DERIVATIVES, PREPARATION METHOD THEREFOR AND MEDICAL USE THEREOF” (TUOJIE BIOTECH(SHANGHAI) CO., LTD., priority 2020, published 2023).
pIC50: −log10 of the molar value. Read-outs that look alike come from different tables or passages of the source.

How the values were obtained:
[1] = target: T1, hP2X3 (Homo sapiens, UniProt P56373); test: FLIPR calcium flux assay, antagonistic activity against hP2X3 receptor; assay type: cell-based; settings: 1321N1/hP2X3 cells, agonist α,β-meATP 500 nM
T1 construct: host or cells: 1321N1 cells
T1 sequence (P56373 1-397): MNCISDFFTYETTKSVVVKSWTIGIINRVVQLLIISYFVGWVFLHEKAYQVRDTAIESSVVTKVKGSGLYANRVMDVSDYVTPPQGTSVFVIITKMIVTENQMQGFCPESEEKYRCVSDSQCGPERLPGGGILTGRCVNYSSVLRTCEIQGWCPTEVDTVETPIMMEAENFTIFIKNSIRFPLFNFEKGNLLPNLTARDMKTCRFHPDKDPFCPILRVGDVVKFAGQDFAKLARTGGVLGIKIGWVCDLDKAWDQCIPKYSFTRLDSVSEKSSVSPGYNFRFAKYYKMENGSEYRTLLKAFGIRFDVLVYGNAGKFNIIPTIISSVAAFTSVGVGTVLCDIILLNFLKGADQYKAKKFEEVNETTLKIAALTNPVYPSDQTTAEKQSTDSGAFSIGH
Procedure: The compounds were screened for antagonistic activity against hP2X3 and hP2X2/3 receptors (changes in calcium flux signals represent the effect of the compounds on ion channels) by an FLIPR assay.
1321N1 cells (adherent cells) stably transfected with hP2X3 and hP2X2/3 receptors were digested, centrifuged, resuspended in a plating medium (DMEM+10% DFBS) and counted, adjusted to 2×10^5 cells/mL. The cells were seeded in a 384-well assay plate at 50 μL/well, and incubated in an incubator at 37° C. with 5% CO2 for 16-24 h. Test compounds (20 mM DMSO stock solution) that were 180 times the desired concentration were prepared with DMSO, and added to a 384-well compound plate at 500 nL/well. Then, each well was supplemented with 30 μL of FLIPR buffer (lx HBSS containing 1.26 mM Ca^2++2 mM CaCl2)+20 mM HEPES), and the mixture was shaken for 20-40 min to be mixed well. The agonist α,β-meATP (final concentration of 500 nM for hP2X3 cells and final concentration of 1000 nM for hP2X2/3 cells) that was 3 times the desired concentration was prepared with an FLIPR buffer, and added to another 384-well compound plate at 35 μL/well. The cell plate in which cells had been plated and cultured for 16-24 h was taken out, and the cell supernatant was removed by pipetting. 30 μL of dye (FLIPR® calcium 4 assay kit, diluted with an FLIPR buffer) was added to each well, and the plate was incubated for 1 h. 15 μL of the compound was added to each well containing cells (dosing using an FLIPR instrument), and after 15 min, 22.5 μL of agonist was added to each well and the fluorescent signal was detected (excitation wavelength: 470-495 nm, emission wavelength: 515-575 nm). With the difference between the peak and the trough of the signal taken as the basic data, the data of the highest concentration of the positive drug taken as the 100% inhibition rate, and the data of DMSO taken as the 0% inhibition rate, the inhibition effect curves of the compounds were fitted on the software Graphpad Prism 6 and IC50 values were calculated.

[2] = target: T2, CYP1A2 (Homo sapiens, UniProt P05177); test: CYP inhibition assay in pooled human liver microsomes (phenacetin); assay type: in vitro ADME; settings: human liver microsomes 0.2 mg/mL, substrate phenacetin; read-out: CYP 1A2 (μM) IC50
T2 construct: 150-donor pooled human liver microsomes (purchased from Corning, Cat. No. 452117); tissue Corning 452117; host or cells: 150-donor pooled human liver microsomes
T2 sequence (P05177 1-516): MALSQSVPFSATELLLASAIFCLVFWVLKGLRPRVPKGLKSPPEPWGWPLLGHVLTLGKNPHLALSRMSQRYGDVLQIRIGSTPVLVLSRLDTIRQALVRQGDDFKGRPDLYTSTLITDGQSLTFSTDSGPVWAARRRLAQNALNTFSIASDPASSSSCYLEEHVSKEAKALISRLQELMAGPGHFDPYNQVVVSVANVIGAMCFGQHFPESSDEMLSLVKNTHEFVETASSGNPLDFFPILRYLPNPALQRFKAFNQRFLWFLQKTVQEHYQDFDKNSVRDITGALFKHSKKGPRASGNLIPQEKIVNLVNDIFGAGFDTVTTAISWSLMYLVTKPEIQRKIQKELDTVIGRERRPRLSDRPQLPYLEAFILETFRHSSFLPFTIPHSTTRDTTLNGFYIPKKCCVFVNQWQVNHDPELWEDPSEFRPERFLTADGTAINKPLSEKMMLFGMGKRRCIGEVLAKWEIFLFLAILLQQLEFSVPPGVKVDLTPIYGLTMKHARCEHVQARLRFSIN
Procedure: (§1) The metabolic reactions of representative substrates of 5 major human CYP subtypes (CYP1A2, CYP2C9, CYP2C19, CYP2D6, CYP3A4/5) were evaluated using 150-donor pooled human liver microsomes (purchased from Corning, Cat. No. 452117). The effects of different concentrations of the test compounds on the metabolic reactions of phenacetin (CYP1A2), diclofenac sodium (CYP2C9), S-mephenytoin (CYP2C19), bufuralol hydrochloride (CYP2D6) and midazolam (CYP3A4/5) were determined by liquid chromatography-tandem mass spectrometry (LC/MS/MS).
(§2) 30 μM phenacetin, 10 μM diclofenac sodium, 35 μM S-mephenytoin, 5 μM bufuralol hydrochloride, 3 μM midazolam, 1 mM NADPH, and test compounds (at concentrations of 0.1 μmol/L, 0.3 μmol/L, 1 μmol/L, 3 μmol/L, 10 μmol/L, and 30 μmol/L, respectively) or positive compound or blank were incubated with 200 μL of a reaction system of pooled human liver microsomes (0.2 mg/mL) (100 mmol/L phosphate buffer, pH 7.4, containing 0.3% by volume of DMSO, 0.6% by volume of acetonitrile, and 0.1% by volume of methanol) at 37° C. for 5 min. Then, 200 μL of acetonitrile containing 3% formic acid and 40 nM internal standard verapamil was added, and the mixture was centrifuged at 4000 rpm for 50 min. The mixture was cooled on ice for 20 min and centrifuged at 4000 rpm for 20 min to precipitate the protein. 200 μL of the supernatant was analyzed by LC/MS/MS.
(§3) The peak area was calculated from the chromatogram. The residual activity rate (%) was calculated by the following formula:
(§4) peak area rate=peak area of metabolite/peak area of internal standard
(§5) residual activity rate (%)=peak area proportion of the test compound group/peak area proportion of the blank group
(§6) The half maximal inhibitory concentrations (IC50) against CYP were calculated by Excel XLfit 5.3.1.3.

[3] = target: T3, CYP2C19 (Homo sapiens, UniProt P33261); test: CYP inhibition assay in pooled human liver microsomes (S-mephenytoin); assay type: in vitro ADME; settings: for IC50: human liver microsomes 0.2 mg/mL, substrate S-mephenytoin, read-out: CYP 2C19 (μM) IC50
T3 construct: 150-donor pooled human liver microsomes (purchased from Corning, Cat. No. 452117); tissue Corning 452117; host or cells: 150-donor pooled human liver microsomes
T3 sequence (P33261 whole entry): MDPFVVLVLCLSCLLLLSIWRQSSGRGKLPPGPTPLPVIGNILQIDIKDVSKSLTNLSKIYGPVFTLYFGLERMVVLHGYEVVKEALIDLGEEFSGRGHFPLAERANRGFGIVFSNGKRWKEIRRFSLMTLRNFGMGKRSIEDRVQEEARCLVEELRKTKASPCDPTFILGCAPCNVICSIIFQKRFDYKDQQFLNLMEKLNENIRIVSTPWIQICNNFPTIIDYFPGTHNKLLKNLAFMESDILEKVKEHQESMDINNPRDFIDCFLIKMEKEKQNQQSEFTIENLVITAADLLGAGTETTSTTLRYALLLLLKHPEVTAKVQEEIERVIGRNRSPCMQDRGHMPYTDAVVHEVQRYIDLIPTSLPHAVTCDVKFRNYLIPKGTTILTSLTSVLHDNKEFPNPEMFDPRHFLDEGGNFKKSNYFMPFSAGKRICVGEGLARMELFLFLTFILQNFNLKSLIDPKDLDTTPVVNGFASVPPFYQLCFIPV
Procedure: as §1, §2, §3, §4, §5, §6

CC(=O)N1CCOC(Cn2c(-c3c(F)cc(N4CCCC4=O)cc3F)nc3cc(C)ccc32)C1 (stereo in doubt) [Compound 1]
pIC50 [1]: 7.43
IC50 [2]: > 30 µM
IC50 [3]: 13 µM

COC(=O)N1CCOC(Cn2c(-c3c(F)cc(N4CCCC4=O)cc3F)nc3cc(C)ccc32)C1 (stereo not drawn) [Compound 2, Methyl 2-((2-(2,6-difluoro-4-(2-carbonylpyrrolidin-1-yl)phenyl)-5-methyl-1H-benzo[d]imidazol-1-yl)methyl)morpholine-4-carboxylate]
pIC50 [1]: 6.98
IC50 [2]: > 30 µM
IC50 [3]: 14.6 µM

CC(=O)N1CCO[C@@H](Cn2c(-c3ccc(N4CCCC4=O)cc3Cl)nc3cc(C)ccc32)C1 [Compound 3, (S)-1-(4-(1-((4-acetylmorpholin-2-yl)methyl)-5-methyl-1H-benzo[d]imidazol-2-yl)-3-chlorophenyl)pyrrolidin-2-one]
pIC50 [1]: 7.39
IC50 [2]: > 30 µM
IC50 [3]: > 30 µM

CC(=O)N1CCO[C@@H](Cn2c(-c3c(F)cc(N4CCCC4=O)cc3Cl)nc3cc(C)ccc32)C1 [Compound 4, (S)-1-(4-(1-((4-acetylmorpholin-2-yl)methyl)-5-methyl-1H-benzo[d]imidazol-2-yl)-3-chloro-5-fluorophenyl)pyrrolidin-2-one]
pIC50 [1]: 7.50
IC50 [2]: > 30 µM
IC50 [3]: > 30 µM

COC(=O)N1CCO[C@@H](Cc2c(-c3c(F)cc(N4CCCC4=O)cc3F)nc3cc(C)ccn23)C1 [Compound 9, Methyl (S)-2-((2-(2,6-difluoro-4-(2-carbonylpyrrolidin-1-yl)phenyl)-7-methylimidazo[1,2-a]pyridin-3-yl)methyl)morpholine-4-carboxylate]
pIC50 [1]: 7.12
IC50 [2]: > 30 µM
pIC50 [3]: 4.89

CC(=O)N1CCO[C@@H](Cn2c(-c3c(F)cc(N4CCCC4=O)cc3F)nc3cc(Cl)ccc32)C1 [Compound 10, (S)-1-(4-(1-((4-acetylmorpholin-2-yl)methyl)-5-chloro-1H-benzo[d]imidazol-2-yl)-3,5-difluorophenyl)pyrrolidin-2-one]
pIC50 [1]: 7.27
IC50 [2]: > 30 µM
IC50 [3]: > 30 µM

[2H]C([2H])([2H])c1ccc2c(c1)nc(-c1c(F)cc(N3CCCC3=O)cc1F)n2C[C@H]1CN(C(C)=O)CCO1 [Compound 14, (S)-1-(4-(1-((4-acetylmorpholin-2-yl)methyl)-5-(methyl-d3)-1H-benzo[d]imidazol-2-yl)-3,5-difluorophenyl)pyrrolidin-2-one]
pIC50 [1]: 7.48
IC50 [2]: > 30 µM
IC50 [3]: > 30 µM
